Experimental data from patent publication US20260078099A1, “COMPOUND, PREPARATION METHOD THEREOF, AND LIPID NANOPARTICLE AND PHARMACEUTICAL COMPOSITION” (priority 2023, published 2026).

Legend:
LNP zeta potential = format: physicochemical; conditions: mRNA LNP
Description: Nanoparticle compositions can be characterized by various methods. For example, the morphology and size distribution of nanoparticle compositions can be examined using microscopy (e.g., transmission electron microscopy or scanning electron microscopy). The zeta potential can be measured using dynamic light scattering or potentiometric titration. Dynamic light scattering can also be used to determine particle size. Instruments such as the Zetasizer Nano ZS (Malvern Instruments Ltd., Malvern, Worcestershire, UK) can also be used to measure multiple characteristics of nanoparticle compositions, such as particle size, polydispersity index, and zeta potential.
[…]: The zeta potential of the nanoparticle composition can indicate the electrophoretic potential of the composition. For example, zeta potential may describe the surface charge of the nanoparticle composition. Nanoparticle compositions with relatively low positive or negative charges are generally desirable, as materials with higher charges may interact undesirably with cells, tissues, and other components in the body. In some embodiments, the zeta potential of the nanoparticle composition may be about −10 mV to about +20 mV, about −10 mV to about +15 mV, about −10 mV to about +10 mV, about −10 mV to about +5 mV, about −10 mV to about 0 mV, about −10 mV to about −5 mV, about −5 mV to about +20 mV, about −5 mV to about +15 mV, about −5 mV to about +10 mV, about −5 mV to about +5 mV, about −5 mV to about 0 mV, about 0 mV to about +20 mV, about 0 mV to about +15 mV, about 0 mV to about +10 mV, about 0 mV to about +5 mV, about +5 mV to about +20 mV, about +5 mV to about +15 mV, or about +5 mV to about +10 mV.

[1] = LNP size and PDI by dynamic light scattering; format: physicochemical; conditions: mRNA LNP, cationic lipid/DSPC/cholesterol/PEG-lipid 50:10:38.5:1.5
Method: (§1) In summary, the cationic lipid described herein, DSPC, cholesterol, and PEG-lipid were dissolved in ethanol at a molar ratio of 50:10:38.5:1.5 and diluted in 10 mM to 50 mM citrate buffer at pH 4 with mRNA. Using a microfluidic device, the lipid ethanol solution was mixed with mRNA aqueous solution at a volume ratio of 1:3 and a total flow rate ranging from 6-30 mL/min, preparing LNPs with a total lipid to mRNA weight ratio of approximately 10:1 to 30:1. Ethanol was removed by dialysis and replaced with PBS. Finally, the lipid nanoparticles were filtered through a 0.22 μm sterile filter.
(§2) The size of lipid nanoparticles was measured by dynamic light scattering using a Malvern Zetasizer Nano ZS (Malvern, UK) with a 90° scattering detection mode. The encapsulation efficiency of lipid nanoparticles was determined using the Quant-it Ribogreen RNA Quantitation Kit (Thermo Fisher Scientific, UK) according to the manufacturer's instructions. The apparent pKa of LNP formulations correlates with the delivery efficiency of nucleic acids by LNPs in vivo. The apparent pKa ranges from approximately 5 to 7. An analysis based on fluorescence from 2-(p-tolylamino)-6-naphthalenesulfonic acid (TNS) was used to determine the apparent pKa of formulations. As described above, LNP formulations containing cationic lipid/DSPC/cholesterol/DMG-PEG (50/10/38.5/1.5 mol %) in PBS were prepared. A 300 μM stock solution of TNS in distilled water was prepared. LNP formulations were diluted to 0.1 mg/mL total lipid in 3 mL of buffer solution containing 50 mM sodium citrate, 50 mM sodium phosphate, 50 mM sodium borate, and 30 mM sodium chloride (pH ranged from 3 to 9). […] S-shaped curve best-fit analysis was applied to the fluorescence data, and the pKa value was measured as the pH value producing half-maximal fluorescence intensity.

mice = experiment: Bioluminescent study, intramuscular injection of F-luc mRNA LNPs; format: in vivo; conditions: F-luc luminescence flux normalized to MC3; 0.25 mg/kg intramuscular, mice n=3, 6-hour time point
Method: The efficacy of nanoparticle compositions was evaluated using bioluminescent studies. A dose of 0.25 mg/kg (mpk) of the formulation was administered to mice (n=3) via intramuscular injection, and bioluminescence was measured at a 6-hour time point. The test lipid nanoparticles from the MC3 formulation were evaluated, and in some cases, controls (e.g., PBS controls) were assessed for comparison.
The characteristics of the test lipid nanoparticles measured from the test groups, including F-luc luminescence intensity, are listed in the table below.

[2] = LNP encapsulation efficiency (Quant-it Ribogreen); format: physicochemical; conditions: mRNA LNP, cationic lipid/DSPC/cholesterol/PEG-lipid 50:10:38.5:1.5
Description: Encapsulation Efficiency: The encapsulation efficiency of a therapeutic and/or prophylactic agent refers to the amount of the therapeutic and/or prophylactic agent encapsulated within or otherwise associated with the nanoparticle composition relative to the initial amount provided during preparation. Encapsulation efficiency is desirably high (such as close to 100%). Encapsulation efficiency can be measured, for example, by comparing the amount of therapeutic and/or prophylactic agent in a solution containing the nanoparticle composition before and after disruption of the nanoparticle composition using one or more organic solvents or detergents. Fluorescence can be used to measure the amount of free therapeutic and/or prophylactic agent (e.g., RNA) in solution. For the nanoparticle compositions described herein, the encapsulation efficiency of the therapeutic and/or prophylactic agent may be at least 50%, such as 50%, 55%, 60%, 65%, 70%, 75%, 80%, 85%, 90%, 91%, 92%, 93%, 94%, 95%, 96%, 97%, 98%, 99%, or 100%. In some embodiments, the encapsulation efficiency may be at least 80%. In certain embodiments, the encapsulation efficiency may be at least 90%.
as §1, §2

Compound | Zeta potential (mV) (LNP zeta potential) | PDI [1] | Size (nm) [1] | Encapsulation efficiency (%) [2] | Relative Total flux (mice)
CCCCCCCCC(CCCCCC)C(=O)OCCCCCCN(CCCCO)CCCCCCOC(=O)C(CCCCCC)CCCCCCCC (centres unmarked) [ALC-0315] | −0.76 mV | 0.082 | 70.12 nm | 93.27% | A (A: ≥2)
CCCCCCCCC(C(=O)NCCCCCCCCCC(=O)OC(CCCCCC)CCCCCC)N(CCCN1CCCC1)C(=O)CCCCCCCCCC(=O)OC(CCCCCC)CCCCCC (centres unmarked) [Compound A1] | −12.25 mV | 0.135 | 82.96 nm | 67.41% | B (B: ≥1 and <2)
CCCCCCCCC(CCCCCC)COC(=O)CCCCCCCCCNC(=O)C(CCCCCCCC)N(CCCN1CCCC1)C(=O)CCCCCCCCCC(=O)OCC(CCCCCC)CCCCCCCC (centres unmarked) [Compound A4] | 5.65 mV | 0.202 | 72.85 nm | 97.34% | D (D: <0.1.)
CCCCCCCCC(C(=O)NCCCCCCCCCC(=O)OCCCCCC)N(CCCN1CCCC1)C(=O)CCCCCCCCCC(=O)OC(CCCCCC)CCCCCC (centres unmarked) [Compound A5] | −17.73 mV | 0.13 | 60.62 nm | 92.48% | D (D: <0.1.)
CCCCCCCCC(C(=O)NCCCCCCCCCC(=O)OCC12CC3CC(CC(C3)C1)C2)N(CCCN1CCCC1)C(=O)CCCCCCCCCC(=O)OC(CCCCCC)CCCCCC (centres unmarked) [Compound A8] | −19.03 mV | 0.16 | 66.98 nm | 92.88% | D (D: <0.1.)
CCCCCCCCC(C(=O)NCCCCCCCCCC(=O)OCC1CC=CCC1)N(CCCN1CCCC1)C(=O)CCCCCCCCCC(=O)OC(CCCCCC)CCCCCC (centres unmarked) [Compound A10] | −3.45 mV | 0.415 | 61.16 nm | 54.08% | A (A: ≥2)
CCCCCCCCC(C(=O)NCCCCCCCCCC(=O)OC(CCCC)CCCCCC)N(CCCN(C)C)C(=O)CCCCCCCCCC(=O)OC(CCCC)CCCCCC (centres unmarked) [Compound A13] | 2.90 mV | 0.157 | 118.5 nm | 94.62% | B (B: ≥1 and <2)
CCCCCCCCC(C(=O)NCCCCCCCCCC(=O)OCCCCCC)N(CCCN(C)C)C(=O)CCCCCCCCCC(=O)OCCCCCC (centres unmarked) [Compound A16] | 0.78 mV | 0.183 | 78.42 nm | 41.55% | C (C: ≥0.1 and <1)
CCCCCCCCC(C(=O)NCCCCCCCCCC(=O)OCC12CC3CC(CC(C3)C1)C2)N(CCCN(C)C)C(=O)CCCCCCCCCC(=O)OC(CCCCCC)CCCCCC (centres unmarked) [Compound A18] | −15.20 mV | 0.136 | 78.14 nm | 87.17% | D (D: <0.1.)

Continued, in another order:

Zeta potential (mV) (LNP zeta potential) | PDI [1] | Size (nm) [1] | Encapsulation efficiency (%) [2] | Compound | Relative Total flux (mice)
−2.69 mV | 0.153 | 78.3 nm | 50.77% | CCCCCCCC(C(=O)NCCCCCCCCCC(=O)OC(CCCCCC)CCCCCC)N(CCCN1CCCC1)C(=O)CCCCCCCCCC(=O)OC(CCCCCC)CCCCCC (centres unmarked) [Compound A2] | C (C: ≥0.1 and <1)
−9.54 mV | 0.234 | 55.75 nm | 84.80% | CCCCCCCCC(C(=O)NCCCCCCCCCC(=O)OCCCCCC)N(CCCN1CCCC1)C(=O)CCCCCCCCCC(=O)OCCCCCC (centres unmarked) [Compound A6] | A (A: ≥2)
4.99 mV | 0.274 | 62.53 nm | 96.10% | CCCCCCCC(C(=O)NCCCCCCCCCC(=O)OC(CCCCCC)CCCCCC)N(CCCN1CCCC1)C(=O)CCCCCCCCCC(=O)OCC12CC3CC(CC(C3)C1)C2 (centres unmarked) [Compound A7] | C (C: ≥0.1 and <1)
−18.67 mV | 0.191 | 64.58 nm | 93.54% | CCCCCCCC(C(=O)NCCCCCCCCCC(=O)OC(CCCCCC)CCCCCC)N(CCCN1CCCC1)C(=O)CCCCCCCCCC(=O)OCC1CC=CCC1 (centres unmarked) [Compound A9] | D (D: <0.1.)
−2.89 mV | 0.075 | 225.6 nm | 71.39% | CCCCCCCCC(C(=O)NCCCCCCCCCC(=O)OC(CCCCCC)CCCCCC)N(CCCN(C)C)C(=O)CCCCCCCCCC(=O)OC(CCCCCC)CCCCCC (centres unmarked) [Compound A11] | D (D: <0.1.)
−9.55 mV | 0.207 | 63.48 nm | 24.84% | CCCCCCCC(C(=O)NCCCCCCCCCC(=O)OC(CCCCCC)CCCCCC)N(CCCN(C)C)C(=O)CCCCCCCCCC(=O)OC(CCCCCC)CCCCCC (centres unmarked) [Compound A12] | C (C: ≥0.1 and <1)
4.02 mV | 0.228 | 89.33 nm | 94.31% | CCCCCCCCC(CCCCCC)COC(=O)CCCCCCCCCNC(=O)C(CCCCCCCC)N(CCCN(C)C)C(=O)CCCCCCCCCC(=O)OCC(CCCCCC)CCCCCCCC (centres unmarked) [Compound A14] | C (C: ≥0.1 and <1)
4.75 mV | 0.251 | 113.2 nm | 93.95% | CCCCCCCCC(C(=O)NCCCCCCCCCC(=O)OCCCCCC)N(CCCN(C)C)C(=O)CCCCCCCCCC(=O)OC(CCCCCC)CCCCCC (centres unmarked) [Compound A15] | A (A: ≥2)
−0.68 mV | 0.07 | 60.77 nm | 53.24% | CCCCCCCC(C(=O)NCCCCCCCCCC(=O)OC(CCCCCC)CCCCCC)N(CCCN(C)C)C(=O)CCCCCCCCCC(=O)OCC12CC3CC(CC(C3)C1)C2 (centres unmarked) [Compound A17] | D (D: <0.1.)
−0.20 mV | 0.093 | 78.64 nm | 89.13% | CCCCCCCC(C(=O)NCCCCCCCCCC(=O)OC(CCCCCC)CCCCCC)N(CCCN(C)C)C(=O)CCCCCCCCCC(=O)OCC1CC=CCC1 (centres unmarked) [Compound A19] | D (D: <0.1.)
